The text below walks through data of ChEMBL document CHEMBL3886762, “Substituted pyridizinone derivatives as PDE10 inhibitors” (2016).

For this experiment, the target named is cAMP and cAMP-inhibited cGMP 3',5'-cyclic phosphodiesterase 10A (Homo sapiens, UniProt Q9Y233). The experiment can be described thus: Fluorescence Polarization Assay: The fluorescence polarization assay for cyclic nucleotide phosphodiesterases was performed using an IMAP® FP kit supplied by Molecular Devices, Sunnyvale, Calif. (product #R8139). IMAP® technology has been applied previously to phosphodiesterase assays (Huang, W., et al., J. Biomol Screen, 2002, 7: 215). (Polarisation of emitted light reports the rotation of a fluorescent probe.)
cAMP and cAMP-inhibited cGMP 3',5'-cyclic phosphodiesterase 10A, sequence (Q9Y233 whole entry): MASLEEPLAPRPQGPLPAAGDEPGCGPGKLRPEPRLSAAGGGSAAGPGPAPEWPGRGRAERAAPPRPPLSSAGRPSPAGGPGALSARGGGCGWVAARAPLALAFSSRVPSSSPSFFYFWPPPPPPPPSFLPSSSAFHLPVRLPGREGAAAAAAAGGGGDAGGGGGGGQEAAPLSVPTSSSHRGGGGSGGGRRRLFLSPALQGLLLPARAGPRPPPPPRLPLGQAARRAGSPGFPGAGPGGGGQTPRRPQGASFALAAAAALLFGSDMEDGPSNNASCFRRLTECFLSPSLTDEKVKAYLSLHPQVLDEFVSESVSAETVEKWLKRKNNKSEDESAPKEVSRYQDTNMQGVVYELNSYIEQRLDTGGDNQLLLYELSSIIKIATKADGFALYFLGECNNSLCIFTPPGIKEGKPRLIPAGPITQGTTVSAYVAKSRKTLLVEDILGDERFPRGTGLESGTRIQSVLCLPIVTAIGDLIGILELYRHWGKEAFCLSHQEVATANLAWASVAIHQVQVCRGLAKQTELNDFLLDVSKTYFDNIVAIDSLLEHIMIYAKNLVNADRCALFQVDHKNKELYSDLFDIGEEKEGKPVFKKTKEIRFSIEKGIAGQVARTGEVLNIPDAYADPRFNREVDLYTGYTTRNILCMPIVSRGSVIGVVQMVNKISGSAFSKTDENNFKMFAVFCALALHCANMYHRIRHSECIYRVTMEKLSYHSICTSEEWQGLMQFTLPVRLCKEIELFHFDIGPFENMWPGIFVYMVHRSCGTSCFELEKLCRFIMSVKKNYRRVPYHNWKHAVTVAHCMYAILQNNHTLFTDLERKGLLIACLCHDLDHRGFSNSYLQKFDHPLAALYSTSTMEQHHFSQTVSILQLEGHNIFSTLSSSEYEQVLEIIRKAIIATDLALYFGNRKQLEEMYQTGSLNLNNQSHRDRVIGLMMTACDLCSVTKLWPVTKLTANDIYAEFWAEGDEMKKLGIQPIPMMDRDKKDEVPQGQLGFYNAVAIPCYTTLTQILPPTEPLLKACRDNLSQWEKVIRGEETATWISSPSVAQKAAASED
For `Cc1nnc(CNc2cc(OC[C@H]3C[C@@H]3c3nn(C)c4ccccc34)nn(C)c2=O)s1`, the Ki (commonly the dissociation constant of the complex between target and ligand, obtained from inhibition or displacement) was found to be 0.905 nM.
To `Cc1nnc(CNc2cc(OC[C@H]3C[C@@H]3c3ccc4ccccc4n3)nn(C)c2=O)s1` belongs 0.001 nM.
With `COc1ccc([C@H]2C[C@@H]2COc2cc(NCc3cnn(C(F)F)c3)c(=O)n(C)n2)nc1`, the Ki came out at 0.144 nM.
`Cc1nnc(CNc2cc(OC[C@H]3C[C@@H]3c3ccn(C)n3)nn(C)c2=O)s1` displayed an inhibition constant (Ki) of 0.1 nM.
To `Cc1nnc(CNc2cc(OC[C@H]3C[C@@H]3c3ccc4c(n3)CCC4)nn(C)c2=O)s1` belongs 0.002 nM; to `Cc1ccc(CNc2cc(OC[C@H]3C[C@@H]3c3ccn(C)n3)nn(C)c2=O)nc1`, 0.473 nM.
